System: AM134bus-5 mutant C. elegans
Assay: FUDR treatment (transfer and topical) to prevent second generation progeny in synchronised worm populations on multi-well plates
Format: in vivo, Caenorhabditis elegans
Protocol: Topical and transfer methods of FUDR application were compared and the optimal concentration of the FUDR on 24 well, 12 well and 6 well plates, assessed.
AM134bus-5 and bus-8 drug sensitive worms were synchronized by bleaching and then plated onto multi-well plates and allowed to develop to adulthood. The adults in half of the wells were transferred to a separate well which had been soaked with varying amounts of FUDR solution using M9 buffer. The remaining wells were treated topically with FUDR.
The cultures were then regularly imaged by bright field microscopy and fed with OP50 when necessary.

## O=c1[nH]c(=O)n([C@H]2C[C@H](O)[C@@H](CO)O2)cc1F [FUDR, 2′-Deoxy-5-fluorouridine]
6 well plates, FUDR 2 μg/ml (25 μl of 10 mg/ml to 5 ml NGM), topical and transfer
  progeny after 11 days: no progeny can be observed
6 well plates, volume of 10 mg/ml FUDR to 5 ml of NGM, 1, 5, 10, 25 and 50 μl tested
  lowest effective dose at preventing the development of progeny: 25 µL
12 well plate (1.7 ug/ml in 2.5 ml NGM)
  optimal addition of 10 mg/ml FUDR per well for preventing progeny worms from developing: 0.015 mL
12 well plates, FUDR 1.7 μg/ml (15 μl of 10 mg/ml to 2.5 ml NGM), topical application
  progeny after 11 days: no progeny can be observed
12 well plates, volume of 10 mg/ml FUDR to 2.5 ml of NGM, 1, 5, 10, 15 and 20 μl tested
  lowest effective dose at preventing the development of progeny: 15 µL
24 well plates, FUDR 2 μg/ml (5 μl of 10 mg/ml to 1 ml NGM), topical and transfer method
  progeny after 11 days: progeny can be observed

From patent US9734575B2, “Method for assessing cell aging” (CHRONOS THERAPEUTICS LIMITED, priority 2013, dated 2017)
